# From patent publication US20100183625A1, “Treatment of Mucositis with Kallikrein Inhibitors” (Dyax Corp., priority 2009, published 2010)
# Positions of bridges follow the written chain, without caps; N, C: chain ends. No end group written: not given here.
# What was measured:
# [1] = target: plasma kallikrein (NP_000883) (Homo sapiens, UniProt P03952); conditions: cited from earlier work
# pKal = pKal (Homo sapiens, UniProt P03952); conditions: read-out: Ki,app; active site inhibitor of pKal; cited from earlier work
# [2] = Lot 100808, phosphate buffered saline, pH 7.0, 5.6 mg/mL
# Chain of plasma kallikrein (NP_000883) (P03952 20-638): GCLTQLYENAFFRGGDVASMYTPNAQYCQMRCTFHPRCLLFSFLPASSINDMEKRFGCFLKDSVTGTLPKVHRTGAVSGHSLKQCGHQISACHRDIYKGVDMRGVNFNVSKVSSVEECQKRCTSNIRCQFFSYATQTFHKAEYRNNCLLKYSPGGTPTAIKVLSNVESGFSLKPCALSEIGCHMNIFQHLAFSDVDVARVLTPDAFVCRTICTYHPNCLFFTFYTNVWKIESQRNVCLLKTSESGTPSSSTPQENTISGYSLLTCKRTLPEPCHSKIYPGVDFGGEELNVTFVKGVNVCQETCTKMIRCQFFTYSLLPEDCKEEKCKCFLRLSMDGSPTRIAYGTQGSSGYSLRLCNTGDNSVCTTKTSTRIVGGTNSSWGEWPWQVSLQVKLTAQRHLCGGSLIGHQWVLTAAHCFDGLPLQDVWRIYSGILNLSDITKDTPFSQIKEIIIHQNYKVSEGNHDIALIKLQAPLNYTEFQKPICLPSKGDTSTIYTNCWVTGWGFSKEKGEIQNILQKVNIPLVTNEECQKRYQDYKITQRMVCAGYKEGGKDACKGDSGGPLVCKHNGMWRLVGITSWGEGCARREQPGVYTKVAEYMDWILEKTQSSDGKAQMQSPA
# Chain of pKal (P03952 20-638): as above
Sequence,Ki [1],Ki (pKal),Stability [2]
"EAMHSFCAFKADDGPCRAAHPRWFFNIFTRQCEEFIYGGCEGNQNRFESLEECKKMCTRD (disulfide 7-57, 16-40, 32-53) [DX-88]",< 1 nM,,
"EAMHSFCAFKADDGPCRAAHPRWFFNIFTRQCEEFSYGGCGGNQNRFESLEECKKMCTRD (disulfide 7-57, 16-40, 32-53) [EPI-KAL2]",,0.1 nM,Stable for 24 hours at 2-4 °C
